Molecules are shown by their SMILES. *1 amine or outer side, *2 acyl side, *3 side chain or, on linkers, in order; H or OH if unused. Where a SMILES comes first, the peptide text is derived from it. [ ]: non-standard residue; d: D form. X1 = CC(C)(c1ccccc1)[C@H](N[*:1])C(=O)[*:2]; αMeF = C[C@](N)(Cc1ccccc1)C(=O)O; αMeK = C[C@](N)(CCCCN)C(=O)O; Aib = CC(C)(N)C(=O)O

Data on seven molecules can be found in patent US20160318987A1 (MEDIMMUNE LIMITED, priority 2013, published 2016).

What all share (assay type): cell-based
Conditions in all cases: n = 2

One experiment concerns the target T1, hGLP-1R (Homo sapiens, UniProt P43220).
T1 construct: expressed in transfected cells
Put plainly: cAMP functional assay, cells expressing human GLP-1 receptor (primary assay).

The target of another experiment is T2, hGluc-R (Homo sapiens, UniProt P47871).
T2 construct: expressed in transfected cells
T2 sequence (P47871 26-477): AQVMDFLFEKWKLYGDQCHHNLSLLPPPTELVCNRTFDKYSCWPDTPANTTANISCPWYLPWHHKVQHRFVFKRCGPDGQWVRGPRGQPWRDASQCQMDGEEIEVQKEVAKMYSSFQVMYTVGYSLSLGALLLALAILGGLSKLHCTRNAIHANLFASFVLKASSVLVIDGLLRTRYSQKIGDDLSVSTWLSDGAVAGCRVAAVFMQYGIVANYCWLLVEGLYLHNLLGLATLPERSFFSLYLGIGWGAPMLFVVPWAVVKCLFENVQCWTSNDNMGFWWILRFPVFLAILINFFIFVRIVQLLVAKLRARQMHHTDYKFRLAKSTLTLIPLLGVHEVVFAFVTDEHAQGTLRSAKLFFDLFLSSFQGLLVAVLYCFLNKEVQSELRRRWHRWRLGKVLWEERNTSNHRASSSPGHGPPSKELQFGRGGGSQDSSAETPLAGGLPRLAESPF
Put plainly: cAMP functional assay, cells expressing human glucagon receptor (primary assay). As for the experimental part:
The biological activities/receptor potencies of the synthetic GLP-1 peptides described herein are suitably tested for biological activity, e.g., stimulation of one or more cellular receptor responses. Stable cell lines expressing human, mouse, rat, or dog GLP-1 receptor (GLP-1R), glucagon receptor (GCGR) or glucose-dependent insulinotropic peptide (gastric inhibitory polypeptide) receptor (GIPR) are generated in HEK293 cells or CHO cells by standard methods.
cAMP assays were performed using “assay buffer”: Assay Buffer: 0.1% BSA (Sigma #A3059) in HBSS (Sigma #H8264) with 25 mM HEPES, pH 7.4 and containing 0.5 mM IBMX (Sigma #17018).
Low protein binding 384-well plates (Greiner #781280) are used to perform eleven 1 in 5 serial dilutions of test samples which are made in assay buffer. All sample dilutions are made in duplicate.
A frozen cryo-vial of cells expressing the receptor of interest is thawed rapidly in a water-bath, transferred to pre-warmed assay buffer and spun at 240× g for 5 minutes. Cells are re-suspended in assay buffer at a batch-dependent optimized concentration (e.g. hGCGR cells at 2×10^5 cells/ml, hGLP-1R and hGIPR cells at 1×10^5 cells /ml).
From the dilution plate, a 5 μL replica is stamped onto a black shallow-well u-bottom 384-well plate (Corning #3676). To this, 5 μL cell suspension is added and the plates incubated at room temperature for 30 minutes.
cAMP levels are measured using a commercially available cAMP dynamic 2 HTRF kit (Cisbio, Cat #62AM4PEJ), following the two step protocol as per manufacturer's recommendations. In brief; anti-cAMP cryptate (donor fluorophore) and cAMP-d2 (acceptor fluorophore) are made up separately by diluting each 1/20 in conjugate & lysis buffer provided in the kit. 5 μL anti-cAMP cryptate is added to all wells of the assay plate, and 5 μL cAMP-d2 is added to all wells except non-specific binding (NSB) wells, to which conjugate and lysis buffer are added. Plates are incubated at room temperature for one hour and then read on an Envision (Perkin Elmer) using excitation wavelength of 320 nm and emission wavelengths of 620 nm & 665 nm. EC50 values of the synthetic peptides determined in cAMP assays are then determined.

The next experiment addresses T3, hGIP-R (Homo sapiens, UniProt P48546).
T3 construct: expressed in transfected cells
T3 sequence (P48546 22-466): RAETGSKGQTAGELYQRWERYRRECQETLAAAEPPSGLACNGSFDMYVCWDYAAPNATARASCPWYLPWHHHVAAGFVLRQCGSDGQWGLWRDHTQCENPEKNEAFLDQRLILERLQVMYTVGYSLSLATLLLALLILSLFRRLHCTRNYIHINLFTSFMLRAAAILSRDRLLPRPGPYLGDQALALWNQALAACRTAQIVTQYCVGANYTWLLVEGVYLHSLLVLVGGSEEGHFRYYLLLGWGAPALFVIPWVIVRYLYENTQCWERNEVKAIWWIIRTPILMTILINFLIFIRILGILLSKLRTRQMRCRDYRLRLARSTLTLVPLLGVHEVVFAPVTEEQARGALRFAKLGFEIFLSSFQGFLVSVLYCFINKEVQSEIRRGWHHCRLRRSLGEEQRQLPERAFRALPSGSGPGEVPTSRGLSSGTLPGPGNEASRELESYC
Put plainly: cAMP functional assay, cells expressing human GIP receptor (primary assay).

T1 sequence (P43220 24-463): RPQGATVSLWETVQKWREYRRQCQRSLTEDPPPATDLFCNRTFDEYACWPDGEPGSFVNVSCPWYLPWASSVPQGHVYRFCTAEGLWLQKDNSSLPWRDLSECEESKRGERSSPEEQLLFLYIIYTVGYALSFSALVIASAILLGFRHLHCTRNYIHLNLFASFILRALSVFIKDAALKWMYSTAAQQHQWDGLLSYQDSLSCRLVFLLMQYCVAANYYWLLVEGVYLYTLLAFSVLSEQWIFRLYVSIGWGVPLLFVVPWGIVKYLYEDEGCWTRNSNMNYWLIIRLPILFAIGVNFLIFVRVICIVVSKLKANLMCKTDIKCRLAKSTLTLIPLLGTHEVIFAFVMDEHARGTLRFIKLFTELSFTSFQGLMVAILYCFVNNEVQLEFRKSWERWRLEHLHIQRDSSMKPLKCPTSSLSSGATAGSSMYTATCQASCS

On to `CC[C@H](C)[C@H](NC(=O)[C@H](Cc1ccccc1)NC(=O)[C@H](CCC(=O)O)NC(=O)[C@H](CCCCN)NC(=O)[C@H](C)NC(=O)[C@H](C)NC(=O)[C@H](CCC(N)=O)NC(=O)CNC(=O)[C@H](CCC(=O)O)NC(=O)[C@H](CC(C)C)NC(=O)[C@H](Cc1ccc(O)cc1)NC(=O)[C@H](CO)NC(=O)[C@H](CO)NC(=O)[C@@H](NC(=O)[C@H](CC(=O)O)NC(=O)[C@H](CO)NC(=O)[C@@H](NC(=O)[C@H](Cc1ccccc1)NC(=O)[C@@H](NC(=O)CNC(=O)[C@H](CCC(=O)O)NC(=O)C(C)(C)NC(=O)[C@@H](N)Cc1c[nH]cn1)[C@@H](C)O)[C@@H](C)O)C(C)C)C(=O)N[C@@H](C)C(=O)N[C@@H](Cc1c[nH]c2ccccc12)C(=O)N[C@@H](CC(C)C)C(=O)N[C@H](C(=O)N[C@@H](CCCCN)C(=O)NCC(=O)N[C@@](C)(CCCNC(=N)N)C(N)=O)C(C)C` [SEQ ID NO: 24, H-(Aib)^2-EGT^5 FTSDV^10 SSYLE^15 GQAAK^20 EFIAW^25 LVKG-(α-MeR)^30], for which the results for the EC50 on hGLP-1R, on hGluc-R and on hGIP-R were 0.021 nM, 111 nM and 111 nM, respectively.

In the case of `CC[C@H](C)[C@H](NC(=O)[C@](C)(Cc1ccccc1)NC(=O)[C@H](CCC(=O)O)NC(=O)[C@H](CCCCN)NC(=O)[C@H](C)NC(=O)[C@H](C)NC(=O)[C@H](CCC(N)=O)NC(=O)CNC(=O)[C@H](CCC(=O)O)NC(=O)[C@H](CC(C)C)NC(=O)[C@](C)(Cc1ccccc1)NC(=O)[C@H](CO)NC(=O)[C@H](CO)NC(=O)[C@@H](NC(=O)[C@H](CC(=O)O)NC(=O)[C@H](CO)NC(=O)[C@@H](NC(=O)[C@](C)(Cc1ccccc1)NC(=O)[C@H](CO)NC(=O)CNC(=O)[C@H](CCC(=O)O)NC(=O)C(C)(C)NC(=O)[C@@H](N)Cc1c[nH]cn1)[C@@H](C)O)C(C)C)C(=O)N[C@@H](C)C(=O)N[C@@](C)(Cc1ccccc1)C(=O)N[C@@H](CC(C)C)C(=O)N[C@H](C(=O)N[C@@](C)(CCCCN)C(=O)NCC(=O)NCC(N)=O)C(C)C` [SEQ ID NO: 45, H-(Aib)^2-EG-(S)^5-(α-MeF)^6-TSDV^10 SS-(α-MeF)^13-LE^15 GQAAK^20 E-(α-MeF)^22-IA-(α-MeF)^25 LV-(α-MeK)^28-G-(G)^30] (H-H[Aib]EGS[αMeF]TSDVSS[αMeF]LEGQAAKE[αMeF]IA[αMeF]LV[αMeK]GG-NH2), the EC50 at hGLP-1R stood at 0.0223 nM; on hGluc-R, 104 nM; at hGIP-R it was 104 nM.

Take `CC[C@H](C)[C@H](NC(=O)[C@H](Cc1ccccc1)NC(=O)[C@H](CCC(=O)O)NC(=O)C(C)(C)NC(=O)[C@H](C)NC(=O)[C@H](C)NC(=O)[C@H](CCC(N)=O)NC(=O)CNC(=O)[C@H](CCC(=O)O)NC(=O)[C@H](CC(C)C)NC(=O)[C@H](Cc1ccc(O)cc1)NC(=O)[C@H](CO)NC(=O)[C@H](CO)NC(=O)[C@@H](NC(=O)[C@H](CC(=O)O)NC(=O)[C@H](CO)NC(=O)[C@@H](NC(=O)[C@H](Cc1ccccc1)NC(=O)[C@@H](NC(=O)CNC(=O)[C@H](CCC(=O)O)NC(=O)C(C)(C)NC(=O)[C@@H](N)Cc1c[nH]cn1)[C@@H](C)O)[C@@H](C)O)C(C)C)C(=O)N[C@@H](C)C(=O)N[C@@H](Cc1c[nH]c2ccccc12)C(=O)N[C@@H](CC(C)C)C(=O)N[C@H](C(=O)N[C@@H](CCCCN)C(=O)NCC(=O)N[C@@H](CCCNC(=N)N)C(N)=O)C(C)C` [SEQ ID NO: 21, H-(Aib)^2-EGT^5 FTSDV^10 SSYLE^15 GQAA-(Aib)^26 EFIAW^25 LVKGR^30]: the EC50 at hGLP-1R came to 0.02 nM; on hGluc-R, 76.5 nM; on hGIP-R, 76.5 nM.

As for `CC[C@H](C)[C@H](NC(=O)[C@H](Cc1ccccc1)NC(=O)[C@H](CCC(=O)O)NC(=O)[C@H](CCCCN)NC(=O)[C@H](C)NC(=O)[C@H](C)NC(=O)[C@H](CCC(N)=O)NC(=O)CNC(=O)[C@H](CCC(=O)O)NC(=O)[C@H](CC(C)C)NC(=O)[C@](C)(Cc1ccc(O)cc1)NC(=O)[C@H](CO)NC(=O)[C@H](CO)NC(=O)[C@@H](NC(=O)[C@H](CC(=O)O)NC(=O)[C@H](CO)NC(=O)[C@@H](NC(=O)[C@H](Cc1ccccc1)NC(=O)[C@@H](NC(=O)CNC(=O)[C@H](CCC(=O)O)NC(=O)C(C)(C)NC(=O)[C@@H](N)Cc1c[nH]cn1)[C@@H](C)O)[C@@H](C)O)C(C)C)C(=O)N[C@@H](C)C(=O)N[C@@H](Cc1c[nH]c2ccccc12)C(=O)N[C@@H](CC(C)C)C(=O)N[C@H](C(=O)N[C@@H](CCCCN)C(=O)NCC(=O)N[C@@H](CCCNC(=N)N)C(N)=O)C(C)C` [SEQ ID NO: 8, H-(Aib)^2-EGT^5 FTSDV^10 SS-(α-MeY)^13-LE^15 GQAAK^20 EFIAW^25 LVKGR^30], the values for the half-maximal effective concentration (EC50) on hGLP-1R, on hGluc-R and on hGIP-R were 0.0229 nM, 156 nM and 156 nM, respectively.

Consider `CC[C@H](C)[C@H](NC(=O)[C@](C)(Cc1ccccc1)NC(=O)[C@H](CCC(=O)O)NC(=O)[C@H](CCCCN)NC(=O)[C@H](C)NC(=O)[C@H](C)NC(=O)[C@H](CCC(N)=O)NC(=O)CNC(=O)[C@H](CCC(=O)O)NC(=O)[C@H](CC(C)C)NC(=O)[C@H](Cc1ccc(O)cc1)NC(=O)[C@H](CO)NC(=O)[C@H](CO)NC(=O)[C@@H](NC(=O)[C@H](CC(=O)O)NC(=O)[C@H](CO)NC(=O)[C@@H](NC(=O)[C@H](Cc1ccccc1)NC(=O)[C@@H](NC(=O)CNC(=O)[C@H](CCC(=O)O)NC(=O)C(C)(C)NC(=O)[C@@H](N)Cc1c[nH]cn1)[C@@H](C)O)[C@@H](C)O)C(C)C)C(=O)N[C@@H](C)C(=O)N[C@@H](Cc1c[nH]c2ccccc12)C(=O)N[C@@H](CC(C)C)C(=O)N[C@H](C(=O)N[C@@H](CCCCN)C(=O)NCC(=O)N[C@@H](CCCNC(=N)N)C(N)=O)C(C)C` [SEQ ID NO: 11, H-(Aib)^2-EGT^5 FTSDV^10 SSYLE^15 GQAAK^20 E-(α-MeF)^22IAW^25 LVKGR^30], for which the EC50 on hGLP-1R was found to be 0.0547 nM; at hGluc-R, 153 nM; on hGIP-R, 153 nM.

On to `CC[C@H](C)[C@H](NC(=O)[C@H](Cc1ccccc1)NC(=O)[C@H](CCC(=O)O)NC(=O)[C@H](CCCCN)NC(=O)[C@H](C)NC(=O)[C@H](C)NC(=O)[C@H](CCC(N)=O)NC(=O)CNC(=O)[C@H](CCC(=O)O)NC(=O)[C@H](CC(C)C)NC(=O)[C@H](Cc1ccc(O)cc1)NC(=O)[C@H](CO)NC(=O)[C@H](CO)NC(=O)[C@@H](NC(=O)[C@H](CC(=O)O)NC(=O)[C@H](CO)NC(=O)[C@@H](NC(=O)[C@H](Cc1ccccc1)NC(=O)[C@@H](NC(=O)CNC(=O)[C@H](CCC(=O)O)NC(=O)C(C)(C)NC(=O)[C@@H](N)Cc1c[nH]cn1)[C@@H](C)O)[C@@H](C)O)C(C)C)C(=O)N[C@@H](C)C(=O)N[C@@H](Cc1c[nH]c2ccccc12)C(=O)N[C@@H](CC(C)C)C(=O)N[C@H](C(=O)N[C@@](C)(CCCCN)C(=O)NCC(=O)N[C@@H](CCCNC(=N)N)C(N)=O)C(C)C` [SEQ ID NO: 22, H-(Aib)^2-EGT^5 FTSDV^10 SSYLE^15 GQAAK^20 EFIAW^25 LV-(α-MeK)^28-GR^30], for which the EC50 is 0.019 nM on hGLP-1R, 91.4 nM at hGluc-R and 91.4 nM at hGIP-R.

Turning to `CC[C@H](C)[C@H](NC(=O)[C@@H](NC(=O)[C@H](CCC(=O)O)NC(=O)[C@H](CCCCN)NC(=O)[C@H](C)NC(=O)[C@H](C)NC(=O)[C@H](CCC(N)=O)NC(=O)CNC(=O)[C@H](CCC(=O)O)NC(=O)[C@H](CC(C)C)NC(=O)[C@@H](NC(=O)[C@H](CO)NC(=O)[C@H](CO)NC(=O)[C@@H](NC(=O)[C@H](CC(=O)O)NC(=O)[C@H](CO)NC(=O)[C@@H](NC(=O)[C@@H](NC(=O)[C@@H](NC(=O)CNC(=O)[C@H](CCC(=O)O)NC(=O)C(C)(C)NC(=O)[C@@H](N)Cc1c[nH]cn1)[C@@H](C)O)C(C)(C)c1ccccc1)[C@@H](C)O)C(C)C)C(C)(C)c1ccccc1)C(C)(C)c1ccccc1)C(=O)N[C@@H](C)C(=O)N[C@H](C(=O)N[C@@H](CC(C)C)C(=O)N[C@H](C(=O)N[C@@H](CCCCN)C(=O)NCC(=O)N[C@@H](CCCNC(=N)N)C(N)=O)C(C)C)C(C)(C)c1ccccc1` [SEQ ID NO: 62, H-(Aib)^2-EGT^5-(β, β-di-Me-Phe)^6-TSDV^10 SS-(β, β-di-Me-Phe)^13-LE^15 GQAAK^20 E-(β, β-di-Me-Phe)^22-IA-(β,β-di-Me-Phe)^25 LVKGR^30] (H-H[Aib]EGT[X1]TSDVSS[X1]LEGQAAKE[X1]IA[X1]LVKGR-NH2), the EC50 on hGLP-1R, on hGluc-R and on hGIP-R was 98.9 nM each time.

As usually defined, the EC50 is the concentration at which the effect is half-maximal.
